From patent publication US20100311827A1, “Chlorogenic acid derivatives and their use as anti-fungal agents” (priority 2006, published 2010)
≈ marks a conversion by molar mass, not a printed value. Read-outs that look alike come from different tables or passages of the source.

Tests used:
[1] = tested on: Candida albicans (ATCC90028); test: Broth dilution anti-fungal susceptibility (NCCLS M27-A2), MIC; format: cell-based; conditions: for MIC: Candida albicans
Experimental: (§1) The anti-fungal activity of the compounds according to the invention were evaluated against Candida albicans (ATCC90028), Cryptococcus neoformans (ATCC32045), and Aspergillus fumigatus (ATCC13073) according to NCCLS guidelines (NCCLS reference method for broth dilution anti-fungal susceptibility testing of yeasts; approved standard-second edition, M27-A2, National Committee for Clinical Laboratory Standards, Villanova, Pa. 2003; and NCCLS reference method for broth dilution anti-fungal susceptibility testing of filamentous fungi; approved standard, M38-A, National Committee for Clinical Laboratory Standards, Villanova, Pa. 2002).
(§2) The medium required for the evaluation of anti-fungal activity was prepared as follows. RPMI 1640 broth+MOPS, pH adjusted and filter sterilized. Sabouraud Dextrose Agar (SDA) plates were used for growing fungi.
(§3) All test or candidate compounds were prepared as 5 mg/ml stock solutions in DMSO and further diluted according to the NCCLS guidelines with sterile water or appropriate diluent. A working stock of 256 μg/ml was used to prepare 1:2 serial dilutions in 96-well plates.
(§4) The inoculums of fungi were prepared by making a direct sterile water suspension of colonies/spores from SDA plates. 0.1% Tween 20 was used for A. fumigatus for better dispersal of spores in suspension. For C. albicans and C. neoformans overnight cultures were used. A. fumigatus required longer incubation. Each fungal suspension was adjusted to read between 70 and 75% transmittance at 530 nm (0.5 McFarland Standard). These suspensions were further diluted 1/1000 in appropriate broth for inoculating the 96-well plates.
(§5) All plates were incubated at 35° C. for the following times: 18 hours to 24 hours for C. albicans, 48 hours for A. fumigatus, and 48 to 72 hours for C. neoformans.

Candida krusei ATCC6258 = test: Broth dilution anti-fungal susceptibility, MIC (as in Example 24); format: cell-based; conditions: for MIC: Pichia kudriavzevii, ATCC6258, read-out: MIC C. krusei
brine shrimp = format: in vivo; conditions: for % BL (brine shrimp lethality): at 100 μg/ml
Experimental: The general in vitro toxicity of these compounds can be tested using the Brine Shrimp Lethality assay, as described in Mclaughlin, J. L. in Methods in Plant Biochemistry. Ed. K. Hostettmann, Academic Press, London, 1991; Vol. 6, pp. 1-32. Typically, candidate compounds are diluted in seawater to a suitable concentration and added to second instar larvae of Artemia salina. After a suitable period of time, for example 24 hours, the survivors are counted. In vitro acute toxicity testing of a compound of Formula I can also be performed using mammalian cell lines (see, for example, Ekwall, B., Ann. N.Y. Acad. Sci., (1983) 407:64-77). Selection of an appropriate cell line is dependent on the potential application of the candidate compound and can be readily determined by one skilled in the art.
To test the general toxicity of these compounds, Brine Shrimp Lethality assay was carried out according to Mclaughlin, J. L. in Methods in Plant Biochemistry. Ed. K. Hostettmann, Academic Press, London, 1991; Vol. 6, pp. 1-32. The compounds were tested at 100 μg/ml.

[2] = tested on: Aspergillus fumigatus (ATCC13073); test: Broth dilution anti-fungal susceptibility of filamentous fungi (NCCLS M38-A), MIC; format: cell-based; conditions: Table 1, MICs read at 80% inhibition, 35° C., 48 hours, tested 0.12 to 64 μg/ml
Experimental: as §1, §2, §3, §4, §5

[3] = tested on: Cryptococcus neoformans (ATCC32045); test: Broth dilution anti-fungal susceptibility (NCCLS M27-A2), MIC; format: cell-based; conditions: Table 1, MICs read at 80% inhibition, 35° C., 48 to 72 hours, tested 0.12 to 64 μg/ml
Experimental: as §1, §2, §3, §4, §5

[4] = Table 3 (Example 26), MICs read at 80% inhibition, 0.12 to 64 μg/ml
[5] = ATCC90028, Table 3 (Example 26, additional testing), MICs read at 80% inhibition, 0.12 to 64 μg/ml, read-out: MIC C. albicans
[6] = ATCC90028, Table 1, MICs read at 80% inhibition, 35° C., 18 to 24 hours, tested 0.12 to 64 μg/ml
[7] = comparison in words, from Table 3

| SMILES | MIC C. albicans ([1]; Table 3 (Example 26, additional testing), MICs read at 80% inhibition, 0.12 to 64 μg/ml) [µg/mL] | MIC C. krusei (Candida krusei ATCC6258; [4]) [µg/mL] | % BL (brine shrimp lethality) (brine shrimp) [%] | MIC [1, 5] [µg/mL] | MIC (Candida krusei ATCC6258; [4]) [µg/mL] | MIC [2] [µg/mL] | MIC [1, 6] [µg/mL] | MIC [3] [µg/mL] | toxicity on brine shrimp compared to chlorogenic acid (brine shrimp; comparison in words, from Table 2) | inhibitory activity against C. albicans compared to chlorogenic acid [1, 7] | inhibitory activity against C. krusei compared to chlorogenic acid (Candida krusei ATCC6258; [7]) |
| --- | --- | --- | --- | --- | --- | --- | --- | --- | --- | --- | --- |
| C[C@@H]1[C@H](O)[C@@H](C)/C=C/C=C/C=C/C=C/C=C/C=C/C=C/[C@H](O[C@@H]2O[C@H](C)[C@@H](O)[C@H](N)[C@@H]2O)C[C@@H]2O[C@](O)(C[C@@H](O)C[C@@H](O)[C@H](O)CC[C@@H](O)C[C@@H](O)CC(=O)O[C@H]1C)C[C@H](O)[C@H]2C(=O)O [Amphotericin B, reference compound] | 0.5 (≈ 0.541 µM) | 1 (≈ 1.08 µM) |  |  |  |  |  |  |  |  |  |
| O=C(/C=C/c1ccc(O)c(O)c1)O[C@@H]1C[C@](O)(C(=O)O)C[C@@H](O)[C@H]1O [Chlorogenic acid] |  |  | 100 | > 64 | > 64 |  |  |  |  |  |  |
| CCCCCCCCOc1ccc(NC(=O)C2(O)CC(OC(=O)/C=C/c3ccc(O)c(O)c3)C3OC(C)(C)OC3C2)cc1 (centres unmarked) [Compound 1] |  |  | 100.0 |  |  | > 64 | 16 (≈ 26.8 µM) | 2 (≈ 3.35 µM) |  |  |  |
| CCCCCCCCOc1ccc(NC(=O)C2(O)CC(O)C(O)C(OC(=O)/C=C/c3ccc(O)c(O)c3)C2)cc1 (centres unmarked) [Compound 2] |  |  | 50.0 |  |  | > 64 | 8 (≈ 14.3 µM) | 2 (≈ 3.59 µM) |  |  |  |
| CCCCCCCCOc1ccc(NC(=O)C(COC(C)(C)C)NC(=O)C2(O)CC(OC(=O)/C=C/c3ccc(O)c(O)c3)C3OC(C)(C)OC3C2)cc1 (centres unmarked) [Compound 3] |  |  | 31.3 |  |  | > 64 | 32 (≈ 43.2 µM) | 2 (≈ 2.7 µM) |  |  |  |
| CCCCCCCCOc1ccc(NC(=O)C(NC(=O)C2(O)CC(OC(=O)/C=C/c3ccc(O)c(O)c3)C3OC(C)(C)OC3C2)C(C)OC(C)(C)C)cc1 (centres unmarked) [Compound 4] |  |  | 6.2 |  |  | > 64 | 32 (≈ 42.4 µM) | 4 (≈ 5.3 µM) |  |  |  |
| CCCCCCCCOc1ccc(NC(=O)C(CC(=O)OC(C)(C)C)NC(=O)C2(O)CC(OC(=O)/C=C/c3ccc(O)c(O)c3)C3OC(C)(C)OC3C2)cc1 (centres unmarked) [Compound 5] |  |  | 56.2 |  |  | > 64 | > 64 | 2 (≈ 2.6 µM) |  |  |  |
| CCCCCCCCOc1ccc(NC(=O)C(CCCNC(=O)OC(C)(C)C)NC(=O)C2(O)CC(OC(=O)/C=C/c3ccc(O)c(O)c3)C3OC(C)(C)OC3C2)cc1 (centres unmarked) [Compound 6] |  |  | 12.5 |  |  | > 64 | > 64 | 2 (≈ 2.46 µM) |  |  |  |
| CCCCCCCCOc1ccc(NC(=O)C(COC(C)(C)C)NC(=O)C2(O)CC(O)C(O)C(OC(=O)/C=C/c3ccc(O)c(O)c3)C2)cc1 (centres unmarked) [Compound 7] |  |  | 31.1 |  |  | > 64 | 4 (≈ 5.71 µM) | 2 (≈ 2.85 µM) |  |  |  |
| CCCCCCCCOc1ccc(NC(=O)C(NC(=O)C2(O)CC(O)C(O)C(OC(=O)/C=C/c3ccc(O)c(O)c3)C2)C(C)OC(C)(C)C)cc1 (centres unmarked) [Compound 8] |  |  | 50.0 | 4 (≈ 5.6 µM) | 2 (≈ 2.8 µM) | > 64 | 2 (≈ 2.8 µM) | 1 (≈ 1.4 µM) | less toxicity | more potent inhibitory activity | more potent inhibitory activity |
| CCCCCCCCOc1ccc(NC(=O)C(CC(=O)OC(C)(C)C)NC(=O)C2(O)CC(O)C(O)C(OC(=O)/C=C/c3ccc(O)c(O)c3)C2)cc1 (centres unmarked) [Compound 9] |  |  | 37.5 |  |  | > 64 | 2 (≈ 2.74 µM) | 2 (≈ 2.74 µM) |  |  |  |
| CCCCCCCCOc1ccc(NC(=O)C(CCCNC(=O)OC(C)(C)C)NC(=O)C2(O)CC(O)C(O)C(OC(=O)/C=C/c3ccc(O)c(O)c3)C2)cc1 (centres unmarked) [Compound 10] |  |  | 25.0 |  |  | > 64 | 2 (≈ 2.59 µM) | 1 (≈ 1.3 µM) |  |  |  |
| CCCCCCCCOc1ccc(NC(=O)C(CO)NC(=O)C2(O)CC(O)C(O)C(OC(=O)/C=C/c3ccc(O)c(O)c3)C2)cc1 (centres unmarked) [Compound 11] |  |  | 18.8 |  |  | > 64 | > 64 | 4 (≈ 6.2 µM) |  |  |  |
| CCCCCCCCOc1ccc(NC(=O)C(CC(=O)O)NC(=O)C2(O)CC(O)C(O)C(OC(=O)/C=C/c3ccc(O)c(O)c3)C2)cc1 (centres unmarked) [Compound 13] |  |  | 6.3 |  |  | > 64 | 64 (≈ 95.1 µM) | 16 (≈ 23.8 µM) |  |  |  |
| CCCCCCCCOc1ccc(NC(=O)C(CCCN)NC(=O)C2(O)CC(O)C(O)C(OC(=O)/C=C/c3ccc(O)c(O)c3)C2)cc1 (centres unmarked) [Compound 14] |  |  | 37.5 |  |  | 16 (≈ 23.8 µM) | 4 (≈ 5.95 µM) | 1 (≈ 1.49 µM) |  |  |  |
| CCCCCCCCOc1ccc(NC(=O)C(CCCNC(=O)OC(C)(C)C)NC(=O)C2(O)CC(O)C(O)C(OC(=O)CCc3ccc(O)c(O)c3)C2)cc1 (centres unmarked) [Compound 15] |  |  | 21.1 |  |  | > 64 | > 64 | 4 (≈ 5.17 µM) |  |  |  |
| CCCCCCCCOc1ccc(NC(=O)C(CCCN)NC(=O)C2(O)CC(O)C(O)C(OC(=O)CCc3ccc(O)c(O)c3)C2)cc1 (centres unmarked) [Compound 16] |  |  | 10.5 |  |  | 64 (≈ 95 µM) | 16 (≈ 23.7 µM) | 8 (≈ 11.9 µM) |  |  |  |
| CCCCCCCCOc1ccc(NC(=O)C(CCCNC(=O)OC(C)(C)C)NC(=O)C2(O)CC(OC(=O)/C=C/c3ccc(O)cc3)C3OC(C)(C)OC3C2)cc1 (centres unmarked) [Compound 17] |  |  | 0.0 |  |  | > 64 | > 64 | > 64 |  |  |  |
| CCCCCCCCOc1ccc(NC(=O)C(CCCNC(=O)OC(C)(C)C)NC(=O)C2(O)CC(O)C(O)C(OC(=O)/C=C/c3ccc(O)cc3)C2)cc1 (centres unmarked) [Compound 18] |  |  | 31.6 |  |  | > 64 | > 64 | > 64 |  |  |  |
| CCCCCCCCOc1ccc(NC(=O)C(CCCN)NC(=O)C2(O)CC(O)C(O)C(OC(=O)/C=C/c3ccc(O)cc3)C2)cc1 (centres unmarked) [Compound 19] |  |  | 100 |  |  | 32 (≈ 48.8 µM) | 8 (≈ 12.2 µM) | 4 (≈ 6.1 µM) |  |  |  |
| CCCCCCCCOc1ccc(NC(=O)C(CCCNC(=O)OC(C)(C)C)NC(=O)C2(O)CC(OC(=O)C(CCc3ccc(O)cc3)NC(=O)OCC3c4ccccc4-c4ccccc43)C3OC(C)(C)OC3C2)cc1 (centres unmarked) [Compound 20] |  |  | 10.5 |  |  | > 64 | > 64 | > 64 |  |  |  |
| CCCCCCCCOc1ccc(NC(=O)C(CCCNC(=O)OC(C)(C)C)NC(=O)C2(O)CC(OC(=O)C(N)CCc3ccc(O)cc3)C3OC(C)(C)OC3C2)cc1 (centres unmarked) [Compound 21] |  |  | 47.7 |  |  | > 64 | > 64 | > 64 |  |  |  |
| CCCCCCCCOc1ccc(NC(=O)C(CCCNC(=O)OC(C)(C)C)NC(=O)C2(O)CC(O)C(O)C(OC(=O)C(N)CCc3ccc(O)cc3)C2)cc1 (centres unmarked) [Compound 22] |  |  | 36.8 |  |  | > 64 | > 64 | 4 (≈ 5.08 µM) |  |  |  |
| CCCCCCCCOc1ccc(NC(=O)C(CCCN)NC(=O)C2(O)CC(O)C(O)C(OC(=O)C(N)CCc3ccc(O)cc3)C2)cc1 (centres unmarked) [Compound 23] |  |  | 73.7 |  |  | > 64 | 64 (≈ 93.2 µM) | 2 (≈ 2.91 µM) |  |  |  |
| OC(Cn1cncn1)(Cn1cncn1)c1ccc(F)cc1F [Fluconazole, reference compound] |  |  |  |  |  | > 64 | 0.25 (≈ 0.816 µM) | 0.5 (≈ 1.63 µM) |  |  |  |
